Test results as given in paper PMC9851200, “Multiparameter phenotypic screening for endogenous TFEB and TFE3 translocation identifies novel chemical series modulating lysosome function” (Autophagy, 2022).
Entries after “also recorded” stand apart in the source; their conditions may differ. Where two headings read alike, the source gives them in different places.

Assays:
CSNK1D = CSNK1D (Homo sapiens, UniProt P48730); conditions: cited from earlier work
MAPK9/JNK2 = MAPK9/JNK2 (Homo sapiens, UniProt P45984); conditions: cited from earlier work
MAPK9/JNK2, sequence (P45984 whole entry): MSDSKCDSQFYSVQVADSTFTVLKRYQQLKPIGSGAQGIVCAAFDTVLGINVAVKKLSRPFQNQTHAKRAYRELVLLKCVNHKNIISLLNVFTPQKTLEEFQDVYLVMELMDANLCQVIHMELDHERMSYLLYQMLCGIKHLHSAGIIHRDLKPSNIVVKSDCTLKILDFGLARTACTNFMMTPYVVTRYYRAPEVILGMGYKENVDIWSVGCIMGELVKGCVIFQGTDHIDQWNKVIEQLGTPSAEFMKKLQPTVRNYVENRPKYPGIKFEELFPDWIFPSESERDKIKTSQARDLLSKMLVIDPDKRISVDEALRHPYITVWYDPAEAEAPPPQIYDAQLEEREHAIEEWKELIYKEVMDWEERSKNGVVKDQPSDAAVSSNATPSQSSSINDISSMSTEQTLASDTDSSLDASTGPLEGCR

STK10/LOK = STK10/LOK (Homo sapiens, UniProt O94804); conditions: cited from earlier work
STK10/LOK, sequence (O94804 whole entry): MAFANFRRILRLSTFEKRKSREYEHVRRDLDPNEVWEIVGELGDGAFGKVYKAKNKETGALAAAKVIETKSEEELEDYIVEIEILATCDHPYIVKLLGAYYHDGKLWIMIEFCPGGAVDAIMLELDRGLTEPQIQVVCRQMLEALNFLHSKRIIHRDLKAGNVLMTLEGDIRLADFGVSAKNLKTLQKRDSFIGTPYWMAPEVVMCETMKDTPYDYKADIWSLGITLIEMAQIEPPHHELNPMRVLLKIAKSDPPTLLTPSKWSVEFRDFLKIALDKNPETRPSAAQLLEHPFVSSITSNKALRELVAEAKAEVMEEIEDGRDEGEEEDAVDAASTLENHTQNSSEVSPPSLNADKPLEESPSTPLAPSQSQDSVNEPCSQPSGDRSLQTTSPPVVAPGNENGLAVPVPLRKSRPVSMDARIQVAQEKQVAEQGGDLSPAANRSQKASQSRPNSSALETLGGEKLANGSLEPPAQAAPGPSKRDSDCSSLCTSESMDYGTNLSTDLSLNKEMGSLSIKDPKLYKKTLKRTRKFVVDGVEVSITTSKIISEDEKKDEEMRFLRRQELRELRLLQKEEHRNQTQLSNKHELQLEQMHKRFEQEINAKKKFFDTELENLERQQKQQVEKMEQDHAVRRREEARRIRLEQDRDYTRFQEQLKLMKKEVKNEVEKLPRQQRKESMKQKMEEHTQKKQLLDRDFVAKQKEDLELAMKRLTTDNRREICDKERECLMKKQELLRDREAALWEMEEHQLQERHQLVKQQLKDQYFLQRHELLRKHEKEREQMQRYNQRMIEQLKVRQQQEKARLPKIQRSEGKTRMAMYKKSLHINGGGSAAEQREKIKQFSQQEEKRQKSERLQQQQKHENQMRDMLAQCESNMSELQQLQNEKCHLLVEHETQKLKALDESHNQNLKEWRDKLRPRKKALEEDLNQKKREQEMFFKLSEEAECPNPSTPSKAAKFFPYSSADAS

PRKD2 = target: T1, PRKD2 (Homo sapiens, UniProt Q9BZL6); conditions: cited from earlier work
T1 sequence (Q9BZL6 1-878): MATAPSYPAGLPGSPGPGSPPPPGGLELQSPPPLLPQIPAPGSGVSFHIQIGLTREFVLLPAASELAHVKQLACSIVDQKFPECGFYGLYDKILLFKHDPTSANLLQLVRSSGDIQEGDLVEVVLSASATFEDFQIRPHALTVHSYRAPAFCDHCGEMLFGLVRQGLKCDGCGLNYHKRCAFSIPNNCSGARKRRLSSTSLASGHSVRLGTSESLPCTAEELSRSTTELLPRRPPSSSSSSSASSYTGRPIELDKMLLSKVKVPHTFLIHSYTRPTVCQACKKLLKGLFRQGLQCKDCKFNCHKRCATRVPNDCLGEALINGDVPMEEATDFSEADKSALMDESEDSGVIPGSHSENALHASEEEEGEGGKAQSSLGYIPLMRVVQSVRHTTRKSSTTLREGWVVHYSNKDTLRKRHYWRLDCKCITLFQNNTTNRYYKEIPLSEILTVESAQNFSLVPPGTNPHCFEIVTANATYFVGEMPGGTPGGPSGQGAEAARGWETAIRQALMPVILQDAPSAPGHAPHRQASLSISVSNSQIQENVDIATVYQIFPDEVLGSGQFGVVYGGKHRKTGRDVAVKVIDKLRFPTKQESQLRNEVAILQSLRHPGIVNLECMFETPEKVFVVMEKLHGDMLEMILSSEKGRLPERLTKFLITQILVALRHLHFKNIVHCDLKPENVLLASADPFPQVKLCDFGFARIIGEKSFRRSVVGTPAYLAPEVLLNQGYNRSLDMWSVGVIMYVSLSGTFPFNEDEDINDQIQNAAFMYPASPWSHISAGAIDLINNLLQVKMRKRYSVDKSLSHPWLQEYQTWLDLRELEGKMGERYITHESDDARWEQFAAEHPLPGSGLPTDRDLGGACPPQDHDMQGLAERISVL

TGFBR1 = target: T2, TGFBR1 (Homo sapiens, UniProt P36897); conditions: cited from earlier work
T2 sequence (P36897 34-503): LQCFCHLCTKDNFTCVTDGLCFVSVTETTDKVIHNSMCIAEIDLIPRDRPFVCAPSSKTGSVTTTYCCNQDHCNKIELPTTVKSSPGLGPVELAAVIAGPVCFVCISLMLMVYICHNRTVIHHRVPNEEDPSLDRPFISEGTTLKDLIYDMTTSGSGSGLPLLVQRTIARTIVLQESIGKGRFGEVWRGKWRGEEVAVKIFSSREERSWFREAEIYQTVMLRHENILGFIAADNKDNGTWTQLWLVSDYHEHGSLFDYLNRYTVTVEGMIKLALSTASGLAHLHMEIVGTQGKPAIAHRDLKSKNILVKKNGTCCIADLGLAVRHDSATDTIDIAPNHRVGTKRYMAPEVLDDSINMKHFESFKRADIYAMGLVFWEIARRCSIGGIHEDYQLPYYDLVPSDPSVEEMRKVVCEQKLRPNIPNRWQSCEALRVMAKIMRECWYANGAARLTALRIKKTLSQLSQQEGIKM

CDC42BPG/DMPK2 = CDC42BPG/DMPK2 (Homo sapiens, UniProt Q6DT37); conditions: cited from earlier work
CDC42BPG/DMPK2, sequence (Q6DT37 whole entry): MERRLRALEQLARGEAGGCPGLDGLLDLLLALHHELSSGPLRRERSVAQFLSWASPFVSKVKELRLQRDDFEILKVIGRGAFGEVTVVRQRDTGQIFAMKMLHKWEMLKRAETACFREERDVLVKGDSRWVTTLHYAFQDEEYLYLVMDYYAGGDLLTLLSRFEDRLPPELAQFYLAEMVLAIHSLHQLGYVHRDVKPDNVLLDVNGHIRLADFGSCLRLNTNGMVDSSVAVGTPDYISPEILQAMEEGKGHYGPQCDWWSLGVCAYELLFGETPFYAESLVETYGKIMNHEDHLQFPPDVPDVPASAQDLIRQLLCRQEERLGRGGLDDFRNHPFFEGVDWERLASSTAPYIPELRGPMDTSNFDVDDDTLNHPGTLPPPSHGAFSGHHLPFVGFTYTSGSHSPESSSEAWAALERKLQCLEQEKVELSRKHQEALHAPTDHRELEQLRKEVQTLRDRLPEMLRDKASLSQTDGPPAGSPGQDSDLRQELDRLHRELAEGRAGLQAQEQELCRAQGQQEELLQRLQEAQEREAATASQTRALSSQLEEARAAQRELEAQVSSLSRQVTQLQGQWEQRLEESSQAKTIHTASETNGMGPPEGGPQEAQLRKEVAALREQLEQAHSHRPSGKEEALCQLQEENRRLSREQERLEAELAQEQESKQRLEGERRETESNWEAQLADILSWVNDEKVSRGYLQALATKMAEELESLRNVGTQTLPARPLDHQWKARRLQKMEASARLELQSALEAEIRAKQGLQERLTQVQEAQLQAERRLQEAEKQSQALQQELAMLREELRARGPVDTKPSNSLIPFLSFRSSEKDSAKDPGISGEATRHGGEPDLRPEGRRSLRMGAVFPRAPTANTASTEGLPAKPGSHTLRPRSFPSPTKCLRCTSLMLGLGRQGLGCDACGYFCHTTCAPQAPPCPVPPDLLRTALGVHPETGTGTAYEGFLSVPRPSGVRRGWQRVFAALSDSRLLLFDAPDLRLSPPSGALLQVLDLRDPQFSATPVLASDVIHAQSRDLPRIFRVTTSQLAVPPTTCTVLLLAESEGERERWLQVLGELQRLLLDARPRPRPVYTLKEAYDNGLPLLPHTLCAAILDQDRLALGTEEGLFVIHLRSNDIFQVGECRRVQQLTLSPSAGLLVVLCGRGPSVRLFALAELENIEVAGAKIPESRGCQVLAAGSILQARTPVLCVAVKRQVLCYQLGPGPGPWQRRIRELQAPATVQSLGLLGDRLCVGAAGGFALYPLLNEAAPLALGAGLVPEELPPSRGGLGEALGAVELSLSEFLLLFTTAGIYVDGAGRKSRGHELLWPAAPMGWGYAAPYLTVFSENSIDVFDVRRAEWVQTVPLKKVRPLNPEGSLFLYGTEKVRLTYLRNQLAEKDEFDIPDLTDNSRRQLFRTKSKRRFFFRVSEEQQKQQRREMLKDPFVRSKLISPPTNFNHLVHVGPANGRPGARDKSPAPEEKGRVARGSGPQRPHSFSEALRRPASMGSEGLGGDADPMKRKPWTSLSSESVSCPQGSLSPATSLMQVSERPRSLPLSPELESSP

MINK1/MINK = MINK1/MINK (Homo sapiens, UniProt Q8N4C8); conditions: cited from earlier work
endogenous TFE3 = assay: TFE3 nuclear translocation, immunocytochemistry high-content imaging; assay type: cell-based; conditions: for TFE3 %: PKIS2 primary screening; for nTFE3 %: primary screen, 1 µM; for nTFE3 % / TFE3 translocation (in words) / EC50 / Best-Fit Values Span: SH-SY5Y; for Best-Fit Values Span: TFE3 assay concentration response; for Summary: activity in TFE3 assays compared with original NK-140, OT activity
PRKD3 = target: T3, PRKD3 (Homo sapiens, UniProt O94806); conditions: cited from earlier work
T3 sequence (O94806 1-890): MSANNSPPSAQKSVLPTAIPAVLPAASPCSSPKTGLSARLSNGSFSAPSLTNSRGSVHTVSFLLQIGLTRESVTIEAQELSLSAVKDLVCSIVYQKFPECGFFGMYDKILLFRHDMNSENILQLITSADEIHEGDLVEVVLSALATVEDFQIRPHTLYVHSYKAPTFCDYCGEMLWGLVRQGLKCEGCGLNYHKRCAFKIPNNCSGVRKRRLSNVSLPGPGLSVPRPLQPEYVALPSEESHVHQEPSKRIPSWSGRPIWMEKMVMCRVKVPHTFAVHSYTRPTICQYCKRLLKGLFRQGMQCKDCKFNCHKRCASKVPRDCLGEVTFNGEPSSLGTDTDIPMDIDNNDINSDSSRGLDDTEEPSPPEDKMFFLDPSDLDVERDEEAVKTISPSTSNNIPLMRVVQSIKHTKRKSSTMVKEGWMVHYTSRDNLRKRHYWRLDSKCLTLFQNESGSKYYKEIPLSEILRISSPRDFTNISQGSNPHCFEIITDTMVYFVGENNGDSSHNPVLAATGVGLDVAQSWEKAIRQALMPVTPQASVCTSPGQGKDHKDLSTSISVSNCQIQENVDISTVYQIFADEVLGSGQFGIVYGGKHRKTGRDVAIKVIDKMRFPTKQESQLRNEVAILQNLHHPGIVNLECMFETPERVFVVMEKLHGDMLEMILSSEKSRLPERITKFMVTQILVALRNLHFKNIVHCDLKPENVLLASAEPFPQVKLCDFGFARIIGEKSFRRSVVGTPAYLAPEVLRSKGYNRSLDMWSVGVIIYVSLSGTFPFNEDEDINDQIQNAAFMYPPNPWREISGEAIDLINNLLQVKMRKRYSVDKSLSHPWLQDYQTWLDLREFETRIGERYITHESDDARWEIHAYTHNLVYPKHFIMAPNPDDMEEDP

MAPK10/JNK3 = MAPK10/JNK3 (Homo sapiens, UniProt P53779); conditions: cited from earlier work
MAPK10/JNK3, sequence (P53779 whole entry): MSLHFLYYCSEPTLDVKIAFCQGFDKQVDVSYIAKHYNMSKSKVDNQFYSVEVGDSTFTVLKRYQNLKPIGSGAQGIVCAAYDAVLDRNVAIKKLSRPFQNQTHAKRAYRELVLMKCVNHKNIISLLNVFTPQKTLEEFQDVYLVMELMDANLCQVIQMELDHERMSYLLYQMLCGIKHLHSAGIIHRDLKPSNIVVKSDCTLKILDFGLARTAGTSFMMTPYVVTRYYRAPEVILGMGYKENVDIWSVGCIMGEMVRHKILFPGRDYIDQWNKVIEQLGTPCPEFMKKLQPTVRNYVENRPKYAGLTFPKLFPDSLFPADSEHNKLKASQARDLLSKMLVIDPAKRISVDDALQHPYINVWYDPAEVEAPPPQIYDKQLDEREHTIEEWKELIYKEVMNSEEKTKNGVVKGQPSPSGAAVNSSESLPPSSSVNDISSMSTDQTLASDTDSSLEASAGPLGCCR

ALK5/TGFBR1 = conditions: cited from earlier work

CSNK1D, sequence (P48730 whole entry): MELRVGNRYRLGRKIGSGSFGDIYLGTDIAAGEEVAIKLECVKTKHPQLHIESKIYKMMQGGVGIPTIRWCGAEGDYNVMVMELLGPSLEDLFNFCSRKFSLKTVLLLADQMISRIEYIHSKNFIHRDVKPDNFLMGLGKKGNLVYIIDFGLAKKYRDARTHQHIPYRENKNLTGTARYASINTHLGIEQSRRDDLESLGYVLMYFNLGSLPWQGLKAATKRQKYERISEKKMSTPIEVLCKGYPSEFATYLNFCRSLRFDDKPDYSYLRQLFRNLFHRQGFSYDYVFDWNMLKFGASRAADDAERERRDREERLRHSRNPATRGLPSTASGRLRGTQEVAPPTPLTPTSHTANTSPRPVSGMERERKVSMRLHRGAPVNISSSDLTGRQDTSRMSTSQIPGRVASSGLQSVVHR

Row | Structure (SMILES) | KINOMEscan binding CSNK1D (CSNK1D) | KINOMEscan binding MAPK9/JNK2 (MAPK9/JNK2) | KINOMEscan binding STK10/LOK (STK10/LOK) | KINOMEscan binding PRKD2 (PRKD2) | KINOMEscan binding CDC42BPG/DMPK2 (CDC42BPG/DMPK2) | KINOMEscan binding MINK1/MINK (MINK1/MINK) | TFE3 % (endogenous TFE3) | nTFE3 % (endogenous TFE3; 24 h) | KINOMEscan binding PRKD3 (PRKD3) | KINOMEscan binding MAPK10/JNK3 (MAPK10/JNK3) | also measured
1 | Cc1ccc(-c2nc(Nc3ccncc3)c3ccccc3n2)s1 [GSK189015] | 33% | 19% | 1% | 14% | 13% | 2% | 15.06% | 15% | 22% | 14% | KINOMEscan binding TGFBR1 (TGFBR1): 6%
2 | COc1ccc2nc(-c3cccc(C)n3)nc(Nc3ccncc3)c2c1 [GSK204919] | 49% | 60% | 0% | 98.8% | 91.1% | 30% | 7.07% | 7% | 100% | 36% | TFE3 translocation (in words) (endogenous TFE3; 24 h treatment): did not show TFEB and TFE3 activation
3 | Cc1cccc(-c2cc(Nc3ccncc3)c3ccccc3n2)n1 [GSK223675] | 14% |  |  | 96% | 7% |  | 9.28% | 9.2% | 100% |  | 
4 | Cc1cccc(-c2nc(C)cc(Nc3ccncc3)n2)n1 [GSK257997] | 43% | 43% | 0% | 80% | 89% | 6% | 9.74% | 9.7% | 85% | 32% | TGFBR1 binding (ALK5/TGFBR1): 0.025 µM; KINOMEscan binding TGFBR1 (TGFBR1): 100%; TFE3 translocation (in words) (endogenous TFE3; 24 h treatment): did not show TFEB and TFE3 activation
5 | Cc1cccc(-c2nc(Nc3ccncc3)c3ccccc3n2)n1 [GW855857] | 73% |  |  | 99% | 76% |  | 15.51% | 15.5% | 69% |  | 
6 | Cc1cccc(-c2nc(Nc3ccc4ncsc4c3)c3ccccc3n2)n1 [GW867588] | 0% | 8% | 27% | 99.8% | 9% | 0% | 18.78% | 18.7% | 66% | 0% | KINOMEscan binding TGFBR1 (TGFBR1): 55%
7 | Cc1csc(-c2nc(Nc3ccncc3)c3ccccc3n2)n1 [GW869640] | 46% |  |  | 78% | 35% |  | 13.20% | 13% | 71% |  | 
8 | Cc1cccc(-c2nc(Nc3ccncc3)c3sccc3n2)n1 [GW869641] | 90% |  |  | 99.6% | 98.5% |  | 6.93% | 6.9% | 90.7% |  | 
9 | Cc1cc(Nc2nc(-c3cccc(C)n3)nc3ccccc23)ccn1 [GW872411] | 35% | 14% | 0% | 99.9% | 2% | 1% | 20.21% | 20.2% | 76% | 0% | KINOMEscan binding TGFBR1 (TGFBR1): 83%
10 | Clc1cccc(-c2nc(Nc3ccncc3)c3ccccc3n2)c1 [GW873004] | 12% |  |  | 45% | 84% |  | 19.51% | 19.5% | 44% |  | TGFBR1 binding (ALK5/TGFBR1): 0.65 µM
11 | Cc1cccc(-c2nc(Nc3cccc(C(N)=O)c3)c3ccccc3n2)n1 [GW876019] | 8% |  |  | 66% | 0% |  | 17.52% | 17.5% | 87% |  | 
12 | Cc1cccc(-c2nc(Nc3ccc4c(cnn4C)c3)c3ccccc3n2)n1 [GW876731] | 50% |  |  | 99.6% | 22% |  | 20.31% | 20.3% | 90.2% |  | 
13 | Cc1cccc(-c2nc(Nc3ccc4ncsc4c3)c3ccccc3n2)n1 [NK140] |  |  |  |  |  |  |  |  |  |  | EC50 (endogenous TFE3; Homo sapiens, 24 h treatment, estimated, read-out: Cellular EC50 against TFE3): 0.65 µM; EC50 (endogenous TFE3; Homo sapiens, TFE3 assay, 24 h, µM, read-out: Best-Fit Values EC50 (converted)): 0.64 µM; TFE3 translocation (in words) (endogenous TFE3; 24 h treatment): modest TFEB and TFE3 translocation; TFE3 translocation (in words) (endogenous TFE3; 48 h treatment): induced; also recorded: elevated TFEB and TFE3 translocation; Best-Fit Values Span (endogenous TFE3; 24 h): 37.55; Summary (endogenous TFE3): Original
14 | Cc1cccc(-c2nc(Nc3ccc4nn(C)cc4c3)c3ccccc3n2)n1 [NK167] |  |  |  |  |  |  |  |  |  |  | EC50 (endogenous TFE3; TFE3 assay, 24 h, second EC50 of biphasic/bell-shaped fit or OT (off-target) activity, unit inferred, read-out: Best-Fit Values EC50 (converted)): 1.05 µM; EC50 (endogenous TFE3; TFE3 assay, 24 h, µM, read-out: Best-Fit Values EC50 (converted)): 1.04 µM; Summary (endogenous TFE3): Weaker, Strong OT activity
15 | Cc1cccc(-c2nc(Nc3ccncc3)c3ccccc3n2)n1 [NK215] |  |  |  |  |  |  |  |  |  |  | KINOMEscan CSNK1D (CSNK1D; CSNK1D, Published KINOMEscan, ref original PKIS2 published data): 73; KINOMEscan PRKD2 (PRKD2; PRKD2, Published KINOMEscan, ref original PKIS2 published data): 99; KINOMEscan CDC42BPG/DMPK2 (CDC42BPG/DMPK2): 76; EC50 (endogenous TFE3; Homo sapiens, 24 h, read-out: Best-Fit Values EC50): 2.04 µM; Best-Fit Values Span (endogenous TFE3; 24 h): 18.17; Summary (endogenous TFE3): Weaker; KINOMEscan PRKD3 (PRKD3; kinase PRKD3, Published KINOMEscan, ref original PKIS2 published data): 69
